How the values were obtained:
[1] = system: normal primary NK cells, pool 1 (3 donors) (IL-2 2.5 ng/mL); assay: percent inhibition of viability; higher = more inhibition; settings: 72 h
[2] = system: YT (IL-2 2.5 ng/mL); assay: as above; settings: 72 h
[3] = system: NK-92 (IL-2 2.5 ng/mL); assay: as above; settings: 72 h
[4] = system: KHYG-1 (IL-2 2.5 ng/mL); assay: as above; settings: 72 h
[5] = system: SNK-6 (IL-2 2.5 ng/mL); assay: as above; settings: 72 h
[6] = system: NKL (IL-2 2.5 ng/mL); assay: as above; settings: 72 h
[7] = system: DERL-7 (IL-2 2.5 ng/mL); assay: as above; settings: 72 h
[8] = system: IMC-1 (IL-2 20 ng/mL); assay: as above; settings: 72 h
[9] = system: normal primary NK cells, pool 3 (3 donors) (IL-2 2.5 ng/mL); assay: as above; settings: 72 h
[10] = system: NK-YS (IL-2 2.5 ng/mL); assay: as above; settings: 72 h
[11] = system: normal primary NK cells, pool 2 (3 donors) (IL-2 2.5 ng/mL); assay: as above; settings: 72 h
[12] = system: normal primary NK cells, pool 1 (3 donors), resting (IL-2 0 ng/mL); assay: as above; settings: 72 h
[13] = system: KAI3 (IL-2 2.5 ng/mL); assay: as above; settings: 72 h
[14] = system: normal primary NK cells, pool 1 (3 donors) (IL-2 2.5 ng/mL); assay: drug sensitivity score (DSS) (DSS units); higher = more sensitive; extreme values may be limits of the assay; settings: 72 h
[15] = system: YT (IL-2 2.5 ng/mL); assay: as above; settings: 72 h
[16] = system: NK-92 (IL-2 2.5 ng/mL); assay: as above; settings: 72 h
[17] = system: KHYG-1 (IL-2 2.5 ng/mL); assay: as above; settings: 72 h
[18] = system: SNK-6 (IL-2 2.5 ng/mL); assay: as above; settings: 72 h
[19] = system: NKL (IL-2 2.5 ng/mL); assay: as above; settings: 72 h
[20] = system: DERL-7 (IL-2 2.5 ng/mL); assay: as above; settings: 72 h
[21] = system: IMC-1 (IL-2 20 ng/mL); assay: as above; settings: 72 h
[22] = system: normal primary NK cells, pool 3 (3 donors) (IL-2 2.5 ng/mL); assay: as above; settings: 72 h
[23] = system: NK-YS (IL-2 2.5 ng/mL); assay: as above; settings: 72 h
[24] = system: normal primary NK cells, pool 2 (3 donors) (IL-2 2.5 ng/mL); assay: as above; settings: 72 h
[25] = system: normal primary NK cells, pool 1 (3 donors), resting (IL-2 0 ng/mL); assay: as above; settings: 72 h
[26] = system: KAI3 (IL-2 2.5 ng/mL); assay: as above; settings: 72 h
[27] = system: normal NK cells expanded with K562-aAPC; assay: percent inhibition of viability; higher = more inhibition; settings: 72 h, IL-2 2.5 ng/mL
Protocol: (§1)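 Drug sensitivity and resistance testing on K562-aAPC-expanded normal NK cells: 5 concentrations (10-fold steps over a 10,000-fold range), 72 h at 37 °C, viability by CellTiter-Glo normalised to DMSO and benzethonium chloride controls; DSS from the fitted curve.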

[28] = system: normal NK cells expanded with K562-aAPC; assay: drug sensitivity score (DSS) (DSS units); higher = more sensitive; extreme values may be limits of the assay; settings: 72 h; IL-2 2.5 ng/mL
Protocol: as §1

C[C@]1(c2nc3c(C(N)=O)cccc3[nH]2)CCCN1 [Veliparib] (max concentration tested 10000 nM)
percent inhibition of viability [%]
Settings	1 nM	10 nM	100 nM	1000 nM	10000 nM
[1]	-7.43	1.5	2.84	7.25	50.4
[2]	1.3	-1.34	0.84	-0.22	3.43
[3]	7.45	4.92	2.84	-4.04	22.9
[4]	-11.7	-8.12	-8.94	-3.41	12
[5]	3.66	1.93	-13.1	-1.7	13.8
[6]	-2.87	-3.94	-5.59	4.18	38.6
[7]	1.66	5.22	0.09	-2.95	25.1
[8]	1	0.9	0.37	0.91	1.79
[9]	-3.03	-1.96	-0.62	-3.1	15.2
[10]	-6.78	-8.37	-8.01	-6.17	14.8
[11]	-7.51	-2.4	-4.92	-8.11	16.4
[12]	-8.38	-4.44	2.95	-4.91	56.4
[13]	1.98	-0.92	-2.55	12.1	34.3
[27]	3.32	0.6	3.03	3.27	19.4

Settings	drug sensitivity score
[14]	3.89
[15]	0
[16]	0.6
[17]	0.01
[18]	0.1
[19]	2.57
[20]	0.78
[21]	0
[22]	0.16
[23]	0.1
[24]	0.16
[25]	2.67
[26]	3.29
[28]	0.98

O=C(c1ccc(OCCN2CCCCC2)cc1)c1c(-c2ccc(O)cc2)sc2cc(O)ccc12 [Raloxifene] (max concentration tested 10000 nM)
percent inhibition of viability [%]
Settings	1 nM	10 nM	100 nM	1000 nM	10000 nM
[1]	1.01	-6.07	1.09	-7.43	20.9
[2]	-1.19	5.28	-0.98	1	77
[3]	1.94	6.91	-0.59	-1.98	92.6
[4]	-4.91	3.37	0.98	11	54.9
[5]	-9.5	-3.4	-9.29	-36.4	67.1
[6]	1.76	7.99	-6.69	11.2	52.2
[7]	-6.41	2.29	1.8	13.7	68.8
[8]	0.84	1.43	3.84	8.59	10.4
[9]	-5.87	-1.12	5.04	8.98	16.6
[10]	0.85	-3.33	4.79	5.35	40.5
[11]	-6.02	-3.78	1.06	2.77	29.1
[12]	2.49	-4.47	-6.62	-34	38.5
[13]	-6.87	-0.15	5.98	4.92	96.1
[27]	-3.9	-1.26	0.77	10.2	53.2

Settings	drug sensitivity score
[14]	0.41
[15]	4.39
[16]	4.99
[17]	4.74
[18]	2.49
[19]	4.58
[20]	6.02
[21]	0
[22]	0.74
[23]	2.92
[24]	1.67
[25]	1.08
[26]	6.04
[28]	4.52

Reference: the supplement of paper PMC5908809
